Reference: patent publication EP1149076B1, “O-THIOCARBAMOYL-AMINOALKANOL COMPOUNDS, THEIR PHARMACEUTICALLY ACCEPTABLE SALTS AND PROCESS FOR PREPARING THE SAME” (SK Corporation, priority 1999, dated 2000)

Legend:
[1] = system: mice (CD-1 strain); test: Forced Swimming Test; format: in vivo; details: duration of immobility, one hour prior to test, 15-minute test period
Description: The therapeutic use of the compounds claimed in the present invention as antidepressants has been proven by the "Forced Swimming Test", a well known pharmacological screening methods for depression and the results are shown in the following Table II.
The procedure described by Porsolt et al., (1997) was used. Test compound was administered p.o. and i.p. to mice (CD-1 strain), one hour prior to the animals being immersed in a 1500mL glass beaker (16.5cm deep, 13.0cm diameter) filled with water (20 ∼ 23°C) to about 5cm from the top. Mice were kept in the water for a period of 15 minutes and the duration of immobility observed within the 15-minute test period was recorded. A mouse was judged to be immobile if it floated motionlessly in the water making only those movements necessary to keep its head above the water.

[2] = system: mice (CD-1 strain); test: Maximal ElectroShock (MES) test; format: in vivo; details: for ED50: Mus musculus

**Q.** Which results are given for `CN(C)C(=S)OC[C@H](N)Cc1ccc(Cl)c(Cl)c1` [[drawing] the 2nd table, row 12]?
**A.** Inhibition (reduction,%) ([1]; i.p. (30mg/kg)): 54.9%; Inhibition (reduction,%) ([1]; p.o. (30mg/kg)): 50.8%

**Q.** `CNC(=S)OCCC(N)c1ccccc1` (stereo not drawn) was tested. Which “Inhibition (reduction,%)” value ([1]; i.p. (30mg/kg)) did it give?
**A.** 44.2%

**Q.** What about the “Inhibition (reduction,%)” value ([1]; p.o. (30mg/kg)) of the same molecule?
**A.** 29.2%

**Q.** Which results are given for `CNC(=S)OC[C@H](N)Cc1ccccc1`?
**A.** ED50 ([2]; ip, 1h): 20.9 mg/kg; MES (po, 30mg/kg) ([2]; po, 30mg/kg, 0.5h, mice protected / mice tested): 3/3 (0.5h)

**Q.** Which results are given for `NC(=S)OC[C@H](N)Cc1ccccc1` [[drawing] the 3rd table, row 2]?
**A.** ED50 ([2]; ip, 0.5h): 29 mg/kg; ED50 ([2]; po, 0.5h): 189 mg/kg

**Q.** Which results are given for `NC(=S)OCC(N)Cc1ccc(Cl)cc1` (racemic)?
**A.** Inhibition (reduction,%) ([1]; i.p. (30mg/kg)): 30.6%; Inhibition (reduction,%) ([1]; p.o. (30mg/kg)): 38.1%

**Q.** `CN(C)C(=S)OC[C@H](N)Cc1ccc(Cl)c(Cl)c1` [[drawing] the 3rd table, row 7] was tested. Which “MES (ip, 30mg/kg)” value ([2]; ip, 30mg/kg, 4.0h, mice protected / mice tested) did it give?
**A.** 1/3 (4.0h)

**Q.** `NC(=S)OC[C@@H](N)Cc1ccccc1` was tested. Which “Inhibition (reduction,%)” value ([1]; i.p. (30mg/kg)) did it give?
**A.** 51.2%

**Q.** Which results are given for `CNC(=S)OCC(CN)c1ccccc1` (stereo not drawn)?
**A.** Inhibition (reduction,%) ([1]; i.p. (30mg/kg)): 30.5%; Inhibition (reduction,%) ([1]; p.o. (30mg/kg)): 25.6%

**Q.** Which “Inhibition (reduction,%)” value ([1]; i.p. (30mg/kg)) does the source give for `NC(=S)OC[C@H](N)Cc1ccccc1` [[drawing] the 2nd table, row 2] here?
**A.** 41.6%

**Q.** For `CNC(=S)OC[C@@H](N)Cc1ccccc1`, which ED50 ([2]; ip, 0.5h) is on record?
**A.** 41.8 mg/kg

**Q.** And the ED50 ([2]; po, 0.5h)?
**A.** 152 mg/kg

**Q.** Which ED50 ([2]; ip, 1h) does the source give for `CNC(=S)OCC(N)Cc1ccccc1F` (racemic) here?
**A.** 24.7 mg/kg
